Columns and labels:
Assay type in all cases: in vivo
Lolium multiflorum = assay: Outdoor trial, post-emergence herbicidal action against Lolium multiflorum; conditions: application at the 2-5-leaf stage (post-emergence), evaluation 55 days after treatment
Protocol: (§1) The herbicidal efficacy of the active compounds or active compound mixtures was scored visually by comparing the treated pots (soil) with untreated controls. The damage and development of all above-ground plant parts was recorded. Scoring was done on a percentage scale (100% action=all plants dead or not emerged; 50% action=50% of the plants and green plant parts dead or not emerged; 0% action=no discernible action=like control plot). The score figures of in any case 4 repetitions (pots) were averaged.
(§2) Seeds or rhizome pieces of monocotyledonous and dicotyledonous weeds are placed in sandy loam in pots, covered with soil and grown in the greenhouse under good growth conditions (temperature, atmospheric humidity, water supply). Three weeks after sowing, the test plants are treated in the three-leaf stage with the compositions according to the invention. The compositions according to the invention, formulated as wettable powders or emulsion concentrates, are sprayed onto the green plant parts in various dosages using an application rate of 300 to 800 l of water/ha (converted). After the test plants have remained in the greenhouse under optimum growth conditions for about 3 to 4 weeks, the effect of the preparations is scored visually in comparison with untreated controls (scoring as in Example 1). The compositions according to the invention also have good herbicidal post-emergence action against a broad spectrum of economically important weed grasses and broad-leaf weeds.
Corresponding to the greenhouse experiments of sections 1 and 2, the tests were carried out in the open on plots. Scoring was carried out analogously to the tests in sections 1 and 2.
Certain combinations were tested for their herbicidal activity in accordance to the general example in section 3 in combination with section 2 (post-emergence method).

Poa trivialis = assay: Outdoor trial, post-emergence herbicidal action against Poa trivialis
Protocol: as §1
as §2, with “The compositions according to the invention also have good herbicidal post-emergence action against a broad spectrum of economically important weed grasses and broad-leaf weeds.” left out

Festuca rubra = assay: Outdoor trial, post-emergence herbicidal action against Festuca rubra
Protocol: as §1
as §2, with “The compositions according to the invention also have good herbicidal post-emergence action against a broad spectrum of economically important weed grasses and broad-leaf weeds.” left out

[1] = 600 g of AS/ha, application at stage 21, evaluation 35 days after treatment
[2] = 200 g of AS/ha, application at stage 21 of the harmful plants, evaluation 35 days after treatment

With `O=C(O)CNCP(=O)(O)O` [(B2.1.2.1), N-(phosphonomethyl)glycine, reference compound] the “Herbicidal action [%] against Lolium multiflorum” value (Lolium multiflorum; 1080 g of AS/ha) was 18%.

`CP(=O)(O)CCC(N)C(=O)O` (racemic) [(B2.1.1.1), 4-[hydroxy(methyl)phosphinoyl]-DL-homoalanine, reference compound] was tested, and the “Herbicidal action [%] against Poa trivialis” value (Poa trivialis; [1]) was 88% and the “Herbicidal action [%] against Festuca rubra” value (Festuca rubra; [1]) was 87%.

`Cc1ccc2c(c1)[C@H](Nc1nc(N)nc([C@@H](C)F)n1)CC2` [(A11), 2-amino-4-[(1R)-6-methylindan-1-ylamino]-6-[(1R)-1-fluoroethyl]-1,3,5-triazine] was tested, and the “Herbicidal action [%] against Poa trivialis” value (Poa trivialis; [2]) was 0%, the “Herbicidal action [%] against Festuca rubra” value (Festuca rubra; [2]) was 0% and the “Herbicidal action [%] against Lolium multiflorum” value (Lolium multiflorum; 200 g of AS/ha) was 20%. For the same molecule, the “Herbicidal action [%] against Lolium multiflorum” value (Lolium multiflorum; 300 g of AS/ha) was 50%.

Reference: patent publication US20060014642A1, “Herbicidal compositions” (Bayer CropScience GmbH, priority 2004, published 2006)
